Data from the OligoGym collection.
HELM strings list units from the 5' end as sugar, base in round brackets, then linkage (d deoxyribose, r ribose, m 2'-O-methyl, p phosphodiester). Strings are as the collection lists them; they lack the last nucleoside at the 3' end of the tested compound. [moe] = 2'-O-(2-methoxyethyl) (MOE); [sp] = phosphorothioate linkage; [m5C] = 5-methylcytosine

Molecular target: GFAP
Assay: mouse, dose not given
Conditions: ASO

Substance	3 h FOB score [score 0-7]
RNA1{[moe]([m5C])[sp].[moe](A)p.[moe](T)p.[moe](T)p.d(T)[sp].d(G)[sp].d(T)[sp].d([m5C])[sp].d(T)[sp].d(T)[sp].d(T)[sp].d(A)[sp].d(T)[sp].d(T)[sp].[moe](T)p.[moe](T)p.[moe](T)p.[moe]([m5C])[sp].[moe]([m5C])}$$$$ (last 3' nucleoside missing)	0
RNA1{[moe](T)[sp].[moe](T)p.[moe](A)p.[moe](T)p.[moe](T)[sp].d(T)[sp].d(T)[sp].d(T)[sp].d([m5C])[sp].d([m5C])[sp].d(T)[sp].d([m5C])[sp].d(A)[sp].[moe](G)p.[moe]([m5C])p.[moe](G)[sp].[moe](A)}$$$$ (last 3' nucleoside missing)	0
RNA1{[moe](T)[sp].[moe]([m5C])p.[moe](T)p.[moe](G)p.[moe](T)[sp].d(G)[sp].d([m5C])[sp].d(T)[sp].d(T)[sp].d(T)[sp].d(A)[sp].d(G)[sp].d(T)[sp].d(G)[sp].d(A)[sp].[moe]([m5C])p.[moe]([m5C])p.[moe](T)[sp].[moe](G)}$$$$ (last 3' nucleoside missing)	4
RNA1{[moe]([m5C])[sp].[moe](T)p.[moe](T)p.[moe](G)p.[moe](G)[sp].d(A)[sp].d([m5C])[sp].d(T)[sp].d([m5C])[sp].d([m5C])[sp].d(T)[sp].d(T)[sp].d(A)[sp].d(A)[sp].d(T)[sp].[moe](G)p.[moe](A)p.[moe]([m5C])[sp].[moe]([m5C])}$$$$ (last 3' nucleoside missing)	0
RNA1{[moe]([m5C])[sp].[moe](T)p.[moe](A)p.[moe](G)p.d(T)[sp].d([m5C])[sp].d(A)[sp].d(G)[sp].d([m5C])[sp].d([m5C])[sp].d(T)[sp].d(G)[sp].d(G)[sp].d(T)[sp].[moe](T)p.[moe](A)p.[moe](G)p.[moe]([m5C])[sp].[moe]([m5C])}$$$$ (last 3' nucleoside missing)	4
RNA1{[moe]([m5C])[sp].[moe](T)p.[moe](G)p.[moe]([m5C])p.[moe](T)[sp].d([m5C])[sp].d(T)[sp].d(T)[sp].d(T)[sp].d([m5C])[sp].d([m5C])[sp].d([m5C])[sp].d(T)[sp].d([m5C])[sp].d(A)[sp].[moe]([m5C])p.[moe](T)p.[moe](T)[sp].[moe](T)}$$$$ (last 3' nucleoside missing)	0
RNA1{[moe](G)[sp].[moe](G)p.[moe]([m5C])p.[moe](A)p.[moe](G)[sp].d(T)[sp].d(A)[sp].d(T)[sp].d(T)[sp].d(A)[sp].d([m5C])[sp].d([m5C])[sp].d(T)[sp].[moe]([m5C])p.[moe](T)p.[moe](A)[sp].[moe]([m5C])}$$$$ (last 3' nucleoside missing)	0
RNA1{[moe](T)[sp].[moe](G)p.[moe]([m5C])p.[moe]([m5C])p.[moe]([m5C])[sp].d([m5C])[sp].d([m5C])[sp].d([m5C])[sp].d(G)[sp].d([m5C])[sp].d([m5C])[sp].d([m5C])[sp].d(T)[sp].d([m5C])[sp].d([m5C])[sp].[moe](T)p.[moe]([m5C])p.[moe]([m5C])[sp].[moe]([m5C])}$$$$ (last 3' nucleoside missing)	4
RNA1{[moe](T)[sp].[moe]([m5C])p.[moe](A)p.[moe]([m5C])p.[moe](A)p.d(T)[sp].d(T)[sp].d([m5C])[sp].d(A)[sp].d([m5C])[sp].d(T)[sp].d(A)[sp].d(A)[sp].d(T)[sp].d(A)[sp].[moe](T)p.[moe](T)p.[moe](T)[sp].[moe](A)}$$$$ (last 3' nucleoside missing)	0
RNA1{[moe](A)[sp].[moe](G)p.[moe](A)p.[moe](G)p.[moe](A)[sp].d(T)[sp].d(G)[sp].d(G)[sp].d(G)[sp].d(T)[sp].d(G)[sp].d(A)[sp].d(G)[sp].d(G)[sp].d(T)[sp].[moe](G)p.[moe](A)p.[moe](G)[sp].[moe](G)}$$$$ (last 3' nucleoside missing)	7
RNA1{[moe](T)[sp].[moe](T)p.[moe](T)p.[moe](A)p.[moe](T)p.[moe]([m5C])p.d(T)[sp].d(G)[sp].d(T)[sp].d(G)[sp].d([m5C])[sp].d(T)[sp].d(T)[sp].d(T)[sp].d(A)[sp].d(G)[sp].[moe](T)p.[moe](G)[sp].[moe](A)}$$$$ (last 3' nucleoside missing)	3
RNA1{[moe]([m5C])[sp].[moe](A)p.[moe](G)p.[moe]([m5C])p.d(A)[sp].d(T)[sp].d(T)[sp].d(T)[sp].d(G)[sp].d(T)[sp].d([m5C])[sp].d(T)[sp].d(T)[sp].d(T)[sp].[moe](A)p.[moe](T)p.[moe](T)p.[moe](T)[sp].[moe](T)}$$$$ (last 3' nucleoside missing)	2
RNA1{[moe](G)[sp].[moe](G)p.[moe]([m5C])p.[moe](G)p.[moe](A)[sp].d(G)[sp].d([m5C])[sp].d(G)[sp].d(G)[sp].d(A)[sp].d(G)[sp].d(G)[sp].d([m5C])[sp].d([m5C])[sp].d(T)[sp].[moe](G)p.[moe](G)p.[moe](G)[sp].[moe](T)}$$$$ (last 3' nucleoside missing)	7
RNA1{[moe](T)[sp].[moe](G)p.[moe](T)p.[moe]([m5C])p.d(T)[sp].d(T)[sp].d(T)[sp].d(A)[sp].d(T)[sp].d(T)[sp].d(T)[sp].d(T)[sp].d(T)[sp].d([m5C])[sp].[moe]([m5C])p.[moe](T)p.[moe]([m5C])p.[moe](A)[sp].[moe](G)}$$$$ (last 3' nucleoside missing)	2
RNA1{[moe](T)[sp].[moe](T)p.[moe](G)p.[moe](G)p.[moe](T)p.[moe](G)p.d([m5C])[sp].d(T)[sp].d(T)[sp].d(T)[sp].d(T)[sp].d(G)[sp].d([m5C])[sp].d([m5C])[sp].d([m5C])[sp].d([m5C])[sp].[moe]([m5C])p.[moe](T)[sp].[moe](G)}$$$$ (last 3' nucleoside missing)	1
RNA1{[moe](T)[sp].[moe](A)p.[moe](G)p.[moe](T)p.[moe]([m5C])p.d(A)[sp].d(G)[sp].d([m5C])[sp].d([m5C])[sp].d(T)[sp].d(G)[sp].d(G)[sp].d(T)[sp].d(T)[sp].d(A)[sp].[moe](G)p.[moe]([m5C])p.[moe]([m5C])[sp].[moe](T)}$$$$ (last 3' nucleoside missing)	4
RNA1{[moe](G)[sp].[moe](T)p.[moe](T)p.[moe](T)p.[moe]([m5C])[sp].d(T)[sp].d(T)[sp].d(G)[sp].d(T)[sp].d(T)[sp].d(A)[sp].d(G)[sp].d(T)[sp].d(T)[sp].d(G)[sp].[moe](G)p.[moe](A)p.[moe](G)[sp].[moe](T)}$$$$ (last 3' nucleoside missing)	7
RNA1{[moe](G)[sp].[moe](A)p.[moe](G)p.[moe](T)p.[moe](T)[sp].d(T)[sp].d([m5C])[sp].d(T)[sp].d(T)[sp].d(G)[sp].d(T)[sp].d(T)[sp].d(A)[sp].d(G)[sp].d(T)[sp].[moe](T)p.[moe](G)p.[moe](G)[sp].[moe](A)}$$$$ (last 3' nucleoside missing)	7
RNA1{[moe](T)[sp].[moe](G)p.[moe]([m5C])p.[moe]([m5C])p.d(A)[sp].d(T)[sp].d(T)[sp].d(T)[sp].d(A)[sp].d(T)[sp].d([m5C])[sp].d(T)[sp].d(G)[sp].d(T)[sp].[moe](G)p.[moe]([m5C])p.[moe](T)p.[moe](T)[sp].[moe](T)}$$$$ (last 3' nucleoside missing)	0
